The test system of assay [1] is SIRT1. Conditions: NAD-dependent deacetylase activity; cited from earlier work.
In assay [2] the test system is rat primary cortical neurons. The assay can be described thus: Lipid extraction and ceramide measurements (LC-MS/MS). Format: cell-based. The following applies: rat primary neurons, TNF-α. The protocol: Primary cortical neurons were prepared from embryonic day 18 Sprague-Dawley rats following previously described methods. […] A crude lipid extract from cortical neurons was obtained using a modified Bligh and Dyer procedure. Ceramide C12:0 (Avanti Polar Lipids) was included as an internal standard. The organic layers were dried in a nitrogen evaporator (Organomation Associates Inc.) and stored at -80°C. Dried organic layers were resuspended in methanol just prior to analysis. The detection and quantitation of individual ceramide species was performed on a high-performance liquid chromatography (HPLC) coupled electrospray ionization triple quadrupole mass spectrometer (API3000, AB Sciex Inc.) using settings similar to those described in previous studies. Samples were handled by a CTC PAL autosampler (LEAP Technologies Inc.) and injected into an HPLC (PerkinElmer) equipped with a reverse phase C18 column (Phenomex). […] The eluted sample was injected into the electrospray ionization source and detection of each ceramide species was conducted by multiple reaction monitoring. Spectral analysis was conducted using MultiQuant (AB Sciex Inc.), individually validated and normalized to the internal standard. Final data for each ceramide species in counts per second was expressed as the ratio of analyte/internal standard.

Assay [3] has as its system SIRT2. Conditions: NAD-dependent deacetylase activity; cited from earlier work.
The target of assay [4] is aSMase. Also noted: method as in earlier work. The following applies: ref personal communication with Drs. Marc Ferrer and Wei Zheng, NCATS; cited from earlier work.

Entries after “also recorded” stand apart in the source; their conditions may differ.

By IC50 is commonly meant the point on the concentration scale where inhibition reaches its midpoint. In the case of `O=c1[nH]c(=S)[nH]c(-c2ccccc2)c1Cc1c(O)ccc2ccccc12` [Cambinol, cambinol], the IC50 in assay [1] is 56 µM; in assay [3], 59 µM; in assay [4] it was above 10 µM. For the same compound, the “effect on cytokine-induced increase of ceramide (words)” value in assay [2] was “decreased”; in assay [2] (listed as cambinol), “dose dependently block; also recorded: blocked”.

The record behind these values is article PMC4444023 (PLoS ONE, 2015).
